Experimental data taken from patent US20240165259A1, “BIOORTHOGONAL REACTION SUITABLE FOR CLICK/UNCLICK APPLICATIONS” (DANA-FARBER CANCER INSTITUTE, INC., priority 2021, published 2024).

Assays:
[1] = system: cell surface HaloTag-GFP expressed on HEK293T cells; experiment: Live cell labeling experiment (confocal microscopy); format: cell-based; conditions: 10 μM 21′, then 10 μM 22′ for 1 hour, fixed
Experimental: Live cell labeling by hydroamination was explored. HEK293T cells were transiently transfected with a cell surface HaloTag-GFP construct, treated with 10 μM HaloTag linker-conjugated difluoropropargyl ether 21′, washed, and incubated with 10 μM TAMRA-conjugated hydroxylamine 22′ for 1 hour. The cells were then fixed and visualized by confocal microscopy.
(§1) Cell Culture: HEK-293T cells were cultured in Dulbecco's Modified Eagle Medium (DMEM, Corning®) containing 10% fetal bovine serum (FBS, Sigma), 100 units/mL penicillin, and 0.1 mg/mL streptomycin (Sigma) in a humidified chamber at 37° C. with 5% CO2. Cells were passaged and dissociated with 0.25% trypsin, 0.1% EDTA in HBSS (Corning®). Cells tested negative for […] by the MycoAlert PLUS Mycoplasma Detection Kit (Lonza) following the manufacturer's protocol.
Preparation for 12-Well Plate: Coverslips (15 mm circle, thickness 0.13-0.17 mm) were acid-washed according to the Cold Spring Harbor protocol (Fischer et al., Cold Spring Harb. Protoc. 2008:pdb.prot4988 (2008)). A coverslip was added to each well in a 12-well plate followed by an aqueous solution of poly-D-lysine (0.1 mg/mL, 30-70 kDa, 800 μL). The plate was gently shaken to distribute the solution evenly, incubated at room temperature for 1 hour, washed using 1 mL of autoclaved deionized water for each well, and dried overnight. […]

[2] = biological target: T1, lysozyme-COT 15 in HEK293T cell lysate (Gallus gallus, UniProt P00698); experiment: Protein labeling in the presence of HEK293T cell lysate; format: biochemical; conditions: 13 and lysozyme-COT 15, HEK293T cell lysate, PBS, 2 hours
T1 construct: purchased
T1 sequence (P00698 19-147): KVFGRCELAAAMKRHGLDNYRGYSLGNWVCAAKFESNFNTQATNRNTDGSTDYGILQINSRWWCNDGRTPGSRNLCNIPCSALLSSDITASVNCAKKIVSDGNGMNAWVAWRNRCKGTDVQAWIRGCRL
Experimental: There appeared to be no cross-reactivity between dialkylhydroxylamine and other proteins under these conditions.
as §1, with “Media” for “Medium”, “ethylenediaminetetraacetic acid (EDTA)” for “EDTA”, “Hanks' balanced salt solution (HBSS)” for “HBSS”, “MycoAlert™” for “MycoAlert”
Cell Lysate: Cell culture media was aspirated prior to lysis. Cells (10 cm dish, ˜80% confluency) was lysed by adding lysis buffer (1.0 mL, 4° C.; 150 mM NaCl, 50 mM Tris (pH 8.0), 1% triton X-100). After centrifugation (13,000×g) at 4° C., the supernatant was transferred to a clean tube, and the protein concentration was determined by BCA (bicinchoninic acid) protein assay (Pierce™ BCA Protein Assay Kit). […]
Protein Labeling Experiments: Lysozyme-COT 15 (0.75 μg, 5.0 μL, 0.15 mg/mL in deionized water) was aliquoted to form 4 samples. […] In-gel fluorescence was imaged with a Typhoon™ FLA 9500 (GE) at 532 nm with a photomultiplier tube (PMT) setting of 500 V. The experiment was carried out in triplicate.

CN(O)CCOCCNC(=O)c1ccc2c(c1)C1(OC2=O)c2ccc(N(C)C)cc2Oc2cc(N(C)C)ccc21 [compound 13, 3′,6′-bis(dimethylamino)-N-(2-(2-(hydroxy(methyl)amino)ethoxy)ethyl)-3-oxo-3H-spiro[isobenzofuran-1,9′-xanthene]-6-carboxamide]
live cell labeling (TAMRA signal) [1]: localized at the cell surface and co-localized with the GFP signal of transfected cells
labeling specificity in the presence of cell lysate [2]: lysozyme was labeled exclusively
